Reference: patent publication US20240285670A1, “THERAPEUTIC TREATMENT OF TUMORS BY BLOCKING THE HEME SYNTHESIS-EXPORT AXIS” (Università degli Studi di Torino, priority 2021, published 2024)

Experiments:
tumor cell = conditions: background art; cited from earlier work
lung tumor LLC cells = assay: LLC cell viability (CellTiter-Fluor) as readout of proliferation; type: cell-based, murine; conditions: 0.5 mM SA at day 0, no medium refresh
Caco2 cells [1] = assay: Heme content (fluorescence assay) in Caco2 cells; type: cell-based, human; conditions: FLVCR1a-silenced Caco2 cells, 5 mM 5-ALA+0.5 mM SA
Protocol: (A) Heme content in Caco2 cells treated with 5 mM 5-ALA (black bars and white bars) or with 5 mM 5-ALA+0.5 mM SA (light grey outlined bars) for the indicated time points. […] Values are expressed as relative fluorescence intensity. Data represent mean±SEM, n=2. For statistical analyses, a two-way analysis of variance was used, followed by the Bonferroni correction for multiple group comparisons; **=p<0.01, ***=p<0.001. 5-ALA, 5-aminolevulinic acid; SA, succinylacetone. (B) Intracellular 5-ALA levels. […] Values are expressed as peak area/μg proteins. Data represent mean±SEM of n=4 wells pooled from two independent experiments. For statistical analyses, an unpaired Student's t-test was used; **=p<0.01. 5-ALA, 5-aminolevulinic acid. […] Values are expressed as peak area/μg proteins. […] Transcript abundance, normalized to beta-actin mRNA expression, is expressed as a fold increase over a calibrator sample. […] Band intensities were measured by densitometry and normalized to vinculin expression. […]
Intracellular heme concentration was measured using a fluorescence assay, as previously reported (Sinclair et al., 2001). […] Fluorescence (wavelength: excitation 405 nm-emission 660-720 nm) of the resultant protoporphyrin was assessed on a Glomax Multi Detection System (Promega Corporation, Madison WI, USA).
The endogenous protoporphyrin content (measured in parallel unheated samples in oxalic acid) was subtracted. […]

[2] = system: FLVCR1a-overexpressing Caco2 cells; assay: TCA cycle flux in Caco2 cells overexpressing FLVCR1a; type: cell-based, human
Protocol: (A) TCA cycle flux in Caco2 cells expressing a scramble shRNA untreated or treated with 25 μM hemin for 2 hours. Moreover, the TCA cycle flux of untreated FLVCR1a-silenced Caco2 cells is reported for comparison. Results are expressed as pmol CO2/h/mg protein. Data represent mean±SEM, n=3. For statistical analyses, an unpaired Student's t-test was used to compare the two matched groups; *=p<0.05, ***=p<0.001. […] Results are expressed as pmol CO2/h/mg protein. Data represent mean±SEM, n=3. For statistical analyses, an unpaired Student's t-test was used; *=p<0.05, **=p<0.01. (C) TCA cycle flux in Caco2 cells overexpressing FLVCR1a (indicated as FLVCR1a+) are compared to cells stably transduced with an empty vector. Moreover, the TCA cycle flux of FLVCR1a-overexpressing Caco2 cells treated with 25 μM hemin or 0.5 mM SA for 2 hours is reported. Results are expressed as pmol CO2/h/mg protein. Data represent mean±SEM, n=3. For statistical analyses, an unpaired Student's t-test was used to compare the two matched groups; *=p<0.05, **=p<0.01. SA, succinylacetone. […]
(§1) The glucose flux through TCA cycle was measured by radiolabeling cells with 2 μCi/ml [6-^14C]-glucose (55 mCi/mmol; PerkinElmer, Waltham, MA, USA, catalog n° NEC045X). […] The amount of glucose transformed into CO2 through the TCA cycle was calculated as described (Riganti et al., 2004) and expressed as pmoles CO2/h/mg cell proteins.

Caco2 cells [3] = assay: TCA cycle flux in Caco2 cells; type: cell-based, human; conditions: control (scramble shRNA) Caco2 cells, 25 μM hemin for 2 hours
Source text: TCA cycle flux is reported in the centre of the figure and expressed as pmol CO2/h/mg protein. Data represent mean±SEM, n=3. For statistical analyses, an unpaired Student's t-test was used. **=p<0.01. Moreover, TCA cycle enzymes activities are reported in boxes and expressed as mU/mg mitochondrial proteins. Data represent mean±SEM, n=3. For statistical analyses, an unpaired Student's t-test was used; *=p<0.05, ***=p<0.001. […] Results are expressed as pmol CO2/h/mg protein. Data represent mean±SEM, n=3. For statistical analyses, an unpaired Student's t-test was used; *=p<0.05, **=p<0.01.
(A) TCA cycle flux in Caco2 cells expressing a scramble shRNA untreated or treated with 25 μM hemin for 2 hours. Moreover, the TCA cycle flux of untreated FLVCR1a-silenced Caco2 cells is reported for comparison. Results are expressed as pmol CO2/h/mg protein. Data represent mean±SEM, n=3. […] Results are expressed as pmol CO2/h/mg protein. […] Results are expressed as pmol CO2/h/mg protein. […]
as §1

| Compound | tumor cell survival and proliferation (tumor cell) | cell proliferation (cell viability) (lung tumor LLC cells) | accumulation of de-novo synthesized heme (Caco2 cells [1]) | reduction of the TCA cycle flux in FLVCR1a-overexpressing cells ([2]; 0.5 mM SA for 2 hours) | TCA cycle flux (Caco2 cells [3]) | reduction of the TCA cycle flux in FLVCR1a-overexpressing cells ([2]; 25 μM hemin for 2 hours) |
| --- | --- | --- | --- | --- | --- | --- |
| CC(=O)CC(=O)CCC(=O)O [SA, 4-6 Dioxoheptanoic acid] | reduce tumor cell survival and proliferation | effects on cell proliferation were similar | blunted | reverted |  |  |
| Hemin Ferriprotoporphyrin IX chloride [reference compound] |  |  |  |  | increased TCA cycle flux | reverted |
